Measurements: paper doi:10.1101/2021.04.08.439011v1 (biorxiv, 2021)

Columns and labels:
Details in all cases: 1 µM; binder
ALK = ALK (Homo sapiens, UniProt Q9UM73)
AXL = AXL (Homo sapiens, UniProt P30530)
BMPR2 = BMPR2 (Homo sapiens, UniProt Q13873)
BMX = BMX (Homo sapiens, UniProt P51813)
BRSK1 = BRSK1 (Homo sapiens, UniProt Q8TDC3)
CAMK2B = CAMK2B (Homo sapiens, UniProt Q13554)
CLK3 = CLK3 (Homo sapiens, UniProt P49761)
DCAMKL3 = DCAMKL3 (Homo sapiens, UniProt Q9C098)
DDR2 = DDR2 (Homo sapiens, UniProt Q16832)
FGFR3(G697C) = FGFR3(G697C) (Homo sapiens, UniProt P22607, G697C)
FLT3(ITD,F691L) = FLT3(ITD,F691L) (Homo sapiens, UniProt P36888, F691L/ITD)
GRK2 = GRK2 (Homo sapiens, UniProt P25098)
GRK7 = GRK7 (Homo sapiens, UniProt Q8WTQ7)
IGF1R = IGF1R (Homo sapiens, UniProt P08069)
JNK1 = JNK1 (Homo sapiens, UniProt P45983)
KIT(V559D,V654A) = KIT(V559D,V654A) (Homo sapiens, UniProt P10721, V559D/V654A)
KIT-autoinhibited = KIT-autoinhibited (Homo sapiens, UniProt P10721)
MLK3 = MLK3 (Homo sapiens, UniProt Q16584)
MTOR = MTOR (Homo sapiens, UniProt P42345)
MYO3A = MYO3A (Homo sapiens, UniProt Q8NEV4)
NDR1 = NDR1 (Homo sapiens, UniProt Q15208)
PFTAIRE2 = PFTAIRE2 (Homo sapiens, UniProt Q96Q40)
PIK3CB = PIK3CB (Homo sapiens, UniProt P42338)
PLK4 = PLK4 (Homo sapiens, UniProt O00444)
PRKD2 = PRKD2 (Homo sapiens, UniProt Q9BZL6)
PYK2 = PYK2 (Homo sapiens, UniProt Q14289)
ROS1 = ROS1 (Homo sapiens, UniProt P08922)
SIK2 = SIK2 (Homo sapiens, UniProt Q9H0K1)
SYK = SYK (Homo sapiens, UniProt P43405)
TBK1 = TBK1 (Homo sapiens, UniProt Q9UHD2)

CAMK2B, sequence (Q13554 whole entry): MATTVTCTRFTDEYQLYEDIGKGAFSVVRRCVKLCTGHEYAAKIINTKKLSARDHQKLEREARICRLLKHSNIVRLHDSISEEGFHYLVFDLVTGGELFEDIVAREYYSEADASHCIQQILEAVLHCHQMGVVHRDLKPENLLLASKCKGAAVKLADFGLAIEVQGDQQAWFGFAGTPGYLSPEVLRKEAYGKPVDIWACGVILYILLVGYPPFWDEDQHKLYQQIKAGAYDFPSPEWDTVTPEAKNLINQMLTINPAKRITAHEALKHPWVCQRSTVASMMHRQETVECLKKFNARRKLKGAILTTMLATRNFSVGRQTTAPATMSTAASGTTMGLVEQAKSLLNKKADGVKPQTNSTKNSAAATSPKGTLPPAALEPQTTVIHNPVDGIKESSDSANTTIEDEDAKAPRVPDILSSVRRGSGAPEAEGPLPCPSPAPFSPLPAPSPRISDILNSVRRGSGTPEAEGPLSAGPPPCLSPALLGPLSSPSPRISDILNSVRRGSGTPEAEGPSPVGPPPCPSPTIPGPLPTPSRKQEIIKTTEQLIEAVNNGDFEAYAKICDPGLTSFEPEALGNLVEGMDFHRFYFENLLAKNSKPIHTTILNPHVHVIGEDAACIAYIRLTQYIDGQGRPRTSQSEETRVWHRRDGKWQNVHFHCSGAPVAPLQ
AXL, sequence (P30530 whole entry): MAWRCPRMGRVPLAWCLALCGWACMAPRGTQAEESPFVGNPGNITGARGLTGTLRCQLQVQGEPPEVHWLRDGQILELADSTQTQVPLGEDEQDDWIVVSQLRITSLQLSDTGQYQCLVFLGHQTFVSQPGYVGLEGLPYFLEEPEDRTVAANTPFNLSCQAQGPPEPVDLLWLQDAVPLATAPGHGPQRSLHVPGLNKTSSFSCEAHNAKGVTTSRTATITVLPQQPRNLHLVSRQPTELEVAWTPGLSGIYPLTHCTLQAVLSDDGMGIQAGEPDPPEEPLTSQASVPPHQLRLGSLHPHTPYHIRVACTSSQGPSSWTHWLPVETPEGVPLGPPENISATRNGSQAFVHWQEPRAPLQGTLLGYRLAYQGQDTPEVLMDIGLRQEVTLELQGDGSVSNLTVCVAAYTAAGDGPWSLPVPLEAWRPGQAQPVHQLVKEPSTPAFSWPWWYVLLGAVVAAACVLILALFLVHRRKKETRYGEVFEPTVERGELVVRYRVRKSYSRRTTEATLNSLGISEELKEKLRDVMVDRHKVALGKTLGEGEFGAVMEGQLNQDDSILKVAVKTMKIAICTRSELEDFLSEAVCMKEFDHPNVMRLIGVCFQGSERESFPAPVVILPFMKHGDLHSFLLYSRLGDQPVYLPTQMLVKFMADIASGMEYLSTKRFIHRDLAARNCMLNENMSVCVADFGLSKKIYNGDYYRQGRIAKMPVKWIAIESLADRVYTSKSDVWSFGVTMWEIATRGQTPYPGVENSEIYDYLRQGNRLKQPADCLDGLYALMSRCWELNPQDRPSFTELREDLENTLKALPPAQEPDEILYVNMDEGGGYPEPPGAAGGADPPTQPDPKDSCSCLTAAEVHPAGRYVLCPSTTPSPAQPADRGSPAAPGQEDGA
FLT3(ITD,F691L), sequence (P36888 564-993 F691L): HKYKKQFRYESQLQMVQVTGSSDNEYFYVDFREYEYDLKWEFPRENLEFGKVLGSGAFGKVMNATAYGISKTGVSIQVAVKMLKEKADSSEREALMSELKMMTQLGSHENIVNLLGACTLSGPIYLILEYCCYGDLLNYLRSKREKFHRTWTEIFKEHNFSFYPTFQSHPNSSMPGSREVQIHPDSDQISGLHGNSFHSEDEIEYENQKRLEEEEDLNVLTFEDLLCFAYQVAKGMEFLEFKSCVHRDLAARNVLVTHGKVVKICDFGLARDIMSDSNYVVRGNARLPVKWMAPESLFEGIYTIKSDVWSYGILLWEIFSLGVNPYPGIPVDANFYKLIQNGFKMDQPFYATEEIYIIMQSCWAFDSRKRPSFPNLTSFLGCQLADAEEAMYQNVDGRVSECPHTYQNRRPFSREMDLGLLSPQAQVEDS
BMPR2, sequence (Q13873 whole entry): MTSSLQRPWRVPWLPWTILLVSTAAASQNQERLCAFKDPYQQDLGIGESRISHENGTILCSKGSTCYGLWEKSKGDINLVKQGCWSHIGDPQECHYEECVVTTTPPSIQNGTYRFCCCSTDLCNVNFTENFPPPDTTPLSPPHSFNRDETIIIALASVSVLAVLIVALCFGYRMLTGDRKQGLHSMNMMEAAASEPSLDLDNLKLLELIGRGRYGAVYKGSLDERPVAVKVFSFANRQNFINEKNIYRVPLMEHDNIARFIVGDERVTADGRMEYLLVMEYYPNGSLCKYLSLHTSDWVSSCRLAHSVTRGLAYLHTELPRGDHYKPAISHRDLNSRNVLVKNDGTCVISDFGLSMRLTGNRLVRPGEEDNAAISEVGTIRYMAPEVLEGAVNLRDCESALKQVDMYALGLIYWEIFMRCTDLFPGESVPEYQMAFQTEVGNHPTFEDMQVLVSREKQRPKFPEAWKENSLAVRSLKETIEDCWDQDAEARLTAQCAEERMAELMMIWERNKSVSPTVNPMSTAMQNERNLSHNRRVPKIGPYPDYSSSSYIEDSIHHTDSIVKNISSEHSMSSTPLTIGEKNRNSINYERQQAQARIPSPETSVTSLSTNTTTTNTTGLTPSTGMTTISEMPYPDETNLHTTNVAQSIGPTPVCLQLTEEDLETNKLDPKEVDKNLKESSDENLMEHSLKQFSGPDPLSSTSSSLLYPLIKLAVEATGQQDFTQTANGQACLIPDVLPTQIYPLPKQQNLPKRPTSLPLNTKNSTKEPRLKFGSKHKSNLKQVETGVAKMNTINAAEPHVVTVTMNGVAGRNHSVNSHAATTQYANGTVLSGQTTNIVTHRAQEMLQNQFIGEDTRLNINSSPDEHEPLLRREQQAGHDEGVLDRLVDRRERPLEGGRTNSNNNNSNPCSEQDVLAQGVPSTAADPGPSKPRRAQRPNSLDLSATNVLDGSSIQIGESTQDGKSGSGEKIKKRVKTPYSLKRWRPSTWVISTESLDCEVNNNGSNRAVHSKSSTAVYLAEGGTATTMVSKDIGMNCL
JNK1, sequence (P45983 whole entry): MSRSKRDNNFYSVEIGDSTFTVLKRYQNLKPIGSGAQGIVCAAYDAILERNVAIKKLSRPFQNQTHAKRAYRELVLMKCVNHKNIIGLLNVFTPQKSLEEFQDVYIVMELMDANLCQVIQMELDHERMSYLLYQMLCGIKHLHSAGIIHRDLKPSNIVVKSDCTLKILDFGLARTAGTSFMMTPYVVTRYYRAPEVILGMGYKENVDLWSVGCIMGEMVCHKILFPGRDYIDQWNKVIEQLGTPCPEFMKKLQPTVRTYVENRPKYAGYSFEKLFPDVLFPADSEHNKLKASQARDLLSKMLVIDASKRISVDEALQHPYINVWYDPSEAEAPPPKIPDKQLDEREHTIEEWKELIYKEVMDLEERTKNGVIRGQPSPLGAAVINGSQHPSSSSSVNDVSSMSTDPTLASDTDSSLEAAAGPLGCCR
KIT-autoinhibited, sequence (P10721 whole entry): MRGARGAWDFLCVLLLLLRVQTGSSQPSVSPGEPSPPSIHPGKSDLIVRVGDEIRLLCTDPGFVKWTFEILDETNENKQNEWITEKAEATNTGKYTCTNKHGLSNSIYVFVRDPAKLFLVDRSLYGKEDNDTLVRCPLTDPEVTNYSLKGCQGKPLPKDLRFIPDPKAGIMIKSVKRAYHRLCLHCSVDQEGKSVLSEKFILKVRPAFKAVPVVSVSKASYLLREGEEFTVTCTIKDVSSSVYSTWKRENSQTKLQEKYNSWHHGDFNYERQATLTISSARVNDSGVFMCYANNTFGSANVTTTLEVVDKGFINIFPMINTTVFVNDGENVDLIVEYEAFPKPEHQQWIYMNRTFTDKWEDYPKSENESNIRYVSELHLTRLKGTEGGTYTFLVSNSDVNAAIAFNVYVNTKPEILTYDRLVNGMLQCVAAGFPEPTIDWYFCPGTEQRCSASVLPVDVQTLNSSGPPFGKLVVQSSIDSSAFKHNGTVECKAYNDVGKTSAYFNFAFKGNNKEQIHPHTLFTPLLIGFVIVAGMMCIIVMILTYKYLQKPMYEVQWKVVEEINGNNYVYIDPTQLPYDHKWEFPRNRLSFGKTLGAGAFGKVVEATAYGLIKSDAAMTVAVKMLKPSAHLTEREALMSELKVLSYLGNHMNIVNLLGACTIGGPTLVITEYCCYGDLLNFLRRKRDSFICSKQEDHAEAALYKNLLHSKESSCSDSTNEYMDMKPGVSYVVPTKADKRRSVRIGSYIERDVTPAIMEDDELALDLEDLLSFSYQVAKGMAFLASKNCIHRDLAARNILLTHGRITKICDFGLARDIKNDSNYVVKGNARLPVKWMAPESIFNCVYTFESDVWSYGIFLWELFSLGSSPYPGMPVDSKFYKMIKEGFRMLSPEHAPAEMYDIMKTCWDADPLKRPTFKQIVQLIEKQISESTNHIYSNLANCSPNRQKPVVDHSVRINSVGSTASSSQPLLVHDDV
GRK7, sequence (Q8WTQ7 whole entry): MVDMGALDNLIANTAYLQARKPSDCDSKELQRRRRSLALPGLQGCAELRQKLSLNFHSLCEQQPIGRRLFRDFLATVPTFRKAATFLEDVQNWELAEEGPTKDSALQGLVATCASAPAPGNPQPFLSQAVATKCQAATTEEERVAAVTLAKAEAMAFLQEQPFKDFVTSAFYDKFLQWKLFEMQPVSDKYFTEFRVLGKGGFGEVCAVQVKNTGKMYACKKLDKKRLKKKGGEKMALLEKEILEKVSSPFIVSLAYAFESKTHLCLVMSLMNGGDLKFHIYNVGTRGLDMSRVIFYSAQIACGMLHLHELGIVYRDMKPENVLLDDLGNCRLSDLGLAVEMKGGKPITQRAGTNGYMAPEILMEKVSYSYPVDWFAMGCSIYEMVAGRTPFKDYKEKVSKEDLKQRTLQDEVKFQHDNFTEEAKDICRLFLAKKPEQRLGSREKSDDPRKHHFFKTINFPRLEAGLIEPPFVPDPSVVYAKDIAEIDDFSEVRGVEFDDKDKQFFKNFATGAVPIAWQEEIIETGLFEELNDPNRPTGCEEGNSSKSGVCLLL
KIT(V559D,V654A), sequence (P10721 whole entry V559D/V654A): as the sequence (P10721 whole entry) above, with V559D, V654A counted along it

CNc1ncc2cc(-c3ccc(-c4cccc(C)n4)cc3Cl)c(=O)n(C[C@H]3OC[C@H](N)CO3)c2n1 [compound 6, G-5555]
Percent Control (ALK): 84% | Percent Control (AXL): 96% | Percent Control (BMPR2): 100% | Percent Control (BMX): 100% | Percent Control (BRSK1): 100% | Percent Control (CAMK2B): 100% | Percent Control (CLK3): 100% | Percent Control (DCAMKL3): 0.5% | Percent Control (DDR2): 100% | Percent Control (FGFR3(G697C)): 100% | Percent Control (FLT3(ITD,F691L)): 43% | Percent Control (GRK2): 100% | Percent Control (GRK7): 89% | Percent Control (IGF1R): 100% | Percent Control (JNK1): 41% | Percent Control (KIT(V559D,V654A)): 100% | Percent Control (KIT-autoinhibited): 81% | Percent Control (MLK3): 100% | Percent Control (MTOR): 83% | Percent Control (MYO3A): 96% | Percent Control (NDR1): 70% | Percent Control (PFTAIRE2): 100% | Percent Control (PIK3CB): 97% | Percent Control (PLK4): 67% | Percent Control (PRKD2): 27% | Percent Control (PYK2): 100% | Percent Control (ROS1): 100% | Percent Control (SIK2): 0.8% | Percent Control (SYK): 100% | Percent Control (TBK1): 68%
